Reference: the CheMixHub viscosity set

Test: xn = mol fraction of the nth substance listed

NCCNCCN + CCCCn1cc[n+](C)c1.F[B-](F)(F)F
Conditions | viscosity [mPa·s]
313.15 K, 101.33 kPa, x2 = 0.8948 | 46.45

C1=Cc2cccc3cccc1c23 + CO
viscosity [mPa·s], 101 kPa
Conditions | 298.15 K | 303.15 K | 308.15 K | 313.15 K | 318.15 K
x1 = 0.00471 | 0.5715 | 0.5301 | 0.494 | 0.4598 | 0.436
x1 = 0.00731 | – | 0.5362 | 0.5036 | 0.4714 | 0.4405

CCCCC(=O)O + CCCCCCO
viscosity [mPa·s], 100 kPa
Conditions | x1 = 0.0922 | x1 = 0.1786 | x1 = 0.2643 | x1 = 0.3791 | x1 = 0.4723 | x1 = 0.5917 | x1 = 0.6782 | x1 = 0.7647 | x1 = 0.8655 | x1 = 0.9463
293.15 K | 5.13 | 4.89 | 4.64 | 4.3 | 4 | 3.61 | 3.33 | 3.04 | 2.7 | 2.43
303.15 K | 3.78 | 3.63 | 3.47 | 3.24 | 3.04 | 2.79 | 2.6 | 2.4 | 2.17 | 1.99
313.15 K | 2.84 | 2.74 | 2.63 | 2.49 | 2.36 | 2.18 | 2.06 | 1.93 | 1.78 | 1.65
323.15 K | 2.18 | 2.11 | 2.03 | 1.93 | 1.85 | 1.74 | 1.66 | 1.57 | 1.48 | 1.4

CCCC[N+](CCCC)(CCCC)CCCC.[Br-] + OCCO
Conditions | viscosity [mPa·s]
293.15 K, 101 kPa, x1 = 0.333 | 187.3
298 K, 100 kPa, x2 = 0.75 | 98
298 K, 101.33 kPa, x1 = 0.2 | 41.51
298.15 K, 100 kPa, x1 = 0.333 | 188
298.15 K, 101 kPa, x1 = 0.2 | 69
303.15 K, 100 kPa, x1 = 0.2 | 161.7
303.15 K, 101 kPa, x1 = 0.2 | 53.8
303.15 K, 101 kPa, x1 = 0.333 | 124
308 K, 100 kPa, x2 = 0.75 | 57
308.15 K, 101 kPa, x1 = 0.2 | 42.6
313.15 K, 100 kPa, x1 = 0.2 | 102.1
313.15 K, 101 kPa, x1 = 0.2 | 31.2
313.15 K, 101 kPa, x1 = 0.333 | 84.3
318 K, 100 kPa, x2 = 0.75 | 35
318.15 K, 101 kPa, x1 = 0.2 | 27.8
323.15 K, 100 kPa, x1 = 0.2 | 61.85
323.15 K, 101 kPa, x1 = 0.2 | 21.7
323.15 K, 101 kPa, x1 = 0.333 | 58.7

CCCC[N+](CCCC)(CCCC)CCCC.[Br-] + O
298.15 K, 101 kPa
Conditions | viscosity [mPa·s]
x1 = 0.0009 | 0.8723
x1 = 0.0089 | 1.538
x1 = 0.0177 | 2.273

NCCNCCN + CCCCCCCCCCO
viscosity [mPa·s], 101 kPa
Conditions | 298.15 K | 303.15 K | 308.15 K
x1 = 0.0564 | 12.02 | 9.924 | 8.366
x1 = 0.1003 | 12.52 | 10.34 | 8.775
x1 = 0.1543 | 12.81 | 10.46 | 8.862
x1 = 0.2007 | 12.75 | 10.39 | 8.738
x1 = 0.259 | 12.43 | 10.11 | 8.451
x1 = 0.3083 | 12 | 9.746 | 8.092
x1 = 0.4061 | 10.91 | 8.874 | 7.255
x1 = 0.5034 | 9.787 | 7.869 | 6.538
x1 = 0.6067 | 8.422 | 6.913 | 5.779
x1 = 0.7075 | 7.345 | 6.087 | 5.117
x1 = 0.8062 | 6.406 | 5.281 | 4.552
x1 = 0.852 | 6.037 | 4.932 | 4.298
x1 = 0.9067 | 5.656 | 4.678 | 4.065
x1 = 0.9524 | 5.499 | 4.556 | 3.897
